In data set [1] the test system is HeLa Control cells. As to conditions: 24 h.
The subject of data set [2] is OATP1B1- and OATP1B3-expressing HeLa or RKO cell lines.
In data set [3] the test system is OATP1B3-expressing HeLa cells. Conditions: for IC50: human.
Data set [4] relates to OATP1B1. The data set can be described thus: in vitro. As to conditions: human.
A further data set deals with PP2A. Conditions: cited from earlier work.
The test system of data set [5] is HeLa Control cells. As to conditions: cited from earlier work.
Data set [6] concerns OATP1B1-expressing HeLa cells. Conditions: cited from earlier work.
Data set [7] has as its system OATP1B3-expressing HeLa cells. As to conditions: cited from earlier work.
For data set [8], the system named is OATP1B3-expressing RKO cells. As to conditions: for IC50: human.
A further data set has as its system RKO control cells. As to conditions: 3 h.
Data set [9] has as its system OATP1B1. Put plainly: in vitro. As to conditions: human. This is another data set of the same source.

Read-outs that look alike come from different tables or passages of the source. Numbered stars: 1 amine (or outer) side, 2 acyl side, 3 side chain; on linkers, the order of the positions; unused ones are H or OH. Bridge positions count the residues as written; N and C are the ends. Square brackets hold non-standard residues; d marks the D form. Peptide text beside a SMILES is read from it. Adda = CO[C@@H](Cc1ccccc1)[C@@H](C)/C=C(C)/C=C/[C@H](N[*:1])[C@H](C)C(=O)[*:2]; dAsp(3S-Me) = C[C@H](C(=O)[*:3])[C@@H](N[*:1])C(=O)[*:2]; d(γGlu) = O=C(O)[C@@H](CCC(=O)[*:2])N[*:1]; NMeDha = C=C(NC)C(=O)O

In general, IC50 refers to the midpoint of a concentration-inhibition curve.

On to `C/C=C1/NC(=O)CC[C@H](C(=O)O)NC(=O)[C@@H](C)[C@H](/C=C/C(C)=C/[C@H](C)[C@H](Cc2ccccc2)OC)NC(=O)[C@H](CCc2ccc(O)cc2)NC(=O)C[C@H](C(=O)O)NC(=O)[C@H](CCc2ccc(O)cc2)NC(=O)[C@@H](C)NC1=O` [compound 19, [D-Asp^3,(E)-Dhb^7]MC-HtyHty], for which the IC50 in the data set on HeLa Control cells [1] was above 10 nM; in [3], 0.18 nM; in the data set with OATP1B1 [4], 0.39 nM. In data set [2], the “IC50 values (potency grouping)” value is listed as “sub-nanomolar”. The “Ratio IC50 B1/B3 HeLa” value in data set [3] was found to be 2.2.
Turning to `C=C1C(=O)N[C@H](C)C(=O)N[C@@H](CCCNC(=N)N)C(=O)N[C@@H](C(=O)O)[C@H](C)C(=O)N[C@@H](CCCNC(=N)N)C(=O)N[C@@H](/C=C/C(C)=C/[C@H](C)[C@H](Cc2ccccc2)OC)[C@H](C)C(=O)N[C@@H](C(=O)O)CCC(=O)N1C` [compound 10, RR] (R[Adda][d(γGlu)][NMeDha][dA]R[dAsp(3S-Me)]-OH; lactam N-7), in the data set on PP2A, the “PP2A inhibition compared with 1” value is reported as “about twenty times weaker”. Also, the “toxicity in the present assay compared with 1 (times lower)” value in data set [2] is listed as “about 500 times”. For the same molecule, the “transporter selectivity (in words)” value in [2] was “most OATP1B3 selective”. Moreover, the IC50 in data set [2] (read-out: IC50 values (potency grouping)) is above 100 nM; in the data set on HeLa Control cells [5] it was above 10000 nM; in data set [6] (read-out: IC50 HeLa B1), 3800 nM; in data set [7] (read-out: IC50 HeLa B3), 580 nM. Besides, the “Ratio IC50 B1/B3 HeLa” value in data set [7] is listed as 6.6.
For the molecule `C=C1[C@@H](O)[C@@H]2O[C@]3(CC[C@H](/C=C/[C@@H](C)[C@@H]4CC(C)=C[C@@]5(O[C@H](C[C@@](C)(O)C(=O)O)CC[C@H]5O)O4)O3)CC[C@H]2O[C@@H]1[C@@H](O)C[C@H](C)[C@H]1O[C@@]2(CCCCO2)CC[C@H]1C` [compound 24, okadaic acid], the IC50 in the data set on HeLa Control cells [5] is 7.8 nM; in [6], 2.2 nM; in data set [7], 3 nM. In data set [7], the “Ratio IC50 B1/B3 HeLa” value was 0.7.
Regarding `CO[C@@H](Cc1ccccc1)[C@@H](C)/C=C(C)/C=C/[C@@H]1NC(=O)[C@H](CCCCNC(=N)N)NC(=O)C[C@H](C(=O)O)NC(=O)[C@H](Cc2ccc(O)cc2)NC(=O)[C@@H](C)NC(=O)[C@H](CO)N(C)C(=O)CC[C@H](C(=O)O)NC(=O)[C@H]1C` [compound 21, [D-Asp^3,MSer^7]MC-YHar], the “Ratio IC50 B1/B3 RKO” value in data set [8] is 1.6. The IC50 in data set [8] is 385 nM; in the data set on RKO control cells, above 1000 nM; in data set [2] (human), above 100 nM; with OATP1B1 [9] it was 625 nM.
For the molecule `C/C=C1/NC(=O)CC[C@H](C(=O)O)NC(=O)[C@@H](C)[C@H](/C=C/C(C)=C/[C@H](C)[C@H](Cc2ccccc2)OC)NC(=O)[C@H](CCCNC(=N)N)NC(=O)C[C@H](C(=O)O)NC(=O)[C@H](CC(C)CC)NC(=O)[C@@H](C)NC1=O` (stereo partly drawn) [compound 4, [D-Asp^3,(E)-Dhb^7]MC-HilR], the “Ratio IC50 B1/B3 RKO” value in data set [8] stood at 15.0. For the same molecule, the results for the IC50 (in [8]; in the data set with RKO control cells; in the data set with OATP1B1 [9]) were 3.8 nM, 993 nM and 56.9 nM, respectively. Further, the “transporter selectivity (in words)” value in data set [2] is “most OATP1B3 selective”.
`C/C=C1/NC(=O)CC[C@H](C(=O)O)NC(=O)[C@@H](C)[C@H](/C=C/C(C)=C/[C@H](C)[C@H](Cc2ccccc2)OC)NC(=O)[C@H](Cc2ccc(O)cc2)NC(=O)C[C@H](C(=O)O)NC(=O)[C@H](CCc2ccc(O)cc2)NC(=O)[C@@H](C)NC1=O` [compound 18, [D-Asp^3,(E)-Dhb^7]MC-HtyY] returned an IC50 in the data set on HeLa Control cells [1] above 10 nM. Besides, in data set [2], the “IC50 values (potency grouping)” value is recorded as “sub-nanomolar” and the “transporter selectivity (in words)” value is recorded as “most OATP1B3 selective”. In data set [3], the “Ratio IC50 B1/B3 HeLa” value came out at 6.6 and the IC50 is 0.078 nM. The midpoint of inhibition in the data set on OATP1B1 [4], the IC50, lay at 0.515 nM.

Values taken from article PMC3948918 (PLoS ONE, 2014).
